According to patent US7745475B2, “Heteroaryl benzamide derivatives as GLK activators” (AstraZeneca AB, priority 2004, dated 2010):
One block for each molecule: values may come before it.

Tests used:
[1] = Oral exposure; assay type: in vivo; conditions: compared with Example II107 in WO 03/015774
[2] = system: Zucker obese fa/fa rats; assay: Oral Glucose Tolerance Test (OGTT); assay type: in vivo, rat
Protocol: (2) Oral Glucose Tolerance Test (OGTT)
Oral glucose tolerance tests were done on conscious Zucker obese fa/fa rats (age 12-13 weeks or older) fed a high fat diet (45% kcal fat) for at least two weeks prior to experimentation. The animals were fasted for 2 hours before use for experiments. A test compound or a vehicle was given orally 120 minutes before oral administration of a glucose solution at a dose of 2 g/kg body weight. Blood glucose levels were measured using a Accucheck glucometer from tail bled samples taken at different time points before and after administration of glucose (time course of […]). A time curve of the blood glucose levels was generated and the area-under-the-curve (AUC) for 120 minutes was calculated (the time of glucose administration being time zero). Percent reduction in glucose excursion was determined using the AUC in the vehicle-control group as zero percent reduction.

[3] = target: T1, recombinant human pancreatic GLK (Homo sapiens, UniProt P35557); assay: Enzymatic activity of recombinant human pancreatic GLK (G-6-P dehydrogenase coupled, OD 340 nm); conditions: comparison in words
T1 sequence (P35557 1-465): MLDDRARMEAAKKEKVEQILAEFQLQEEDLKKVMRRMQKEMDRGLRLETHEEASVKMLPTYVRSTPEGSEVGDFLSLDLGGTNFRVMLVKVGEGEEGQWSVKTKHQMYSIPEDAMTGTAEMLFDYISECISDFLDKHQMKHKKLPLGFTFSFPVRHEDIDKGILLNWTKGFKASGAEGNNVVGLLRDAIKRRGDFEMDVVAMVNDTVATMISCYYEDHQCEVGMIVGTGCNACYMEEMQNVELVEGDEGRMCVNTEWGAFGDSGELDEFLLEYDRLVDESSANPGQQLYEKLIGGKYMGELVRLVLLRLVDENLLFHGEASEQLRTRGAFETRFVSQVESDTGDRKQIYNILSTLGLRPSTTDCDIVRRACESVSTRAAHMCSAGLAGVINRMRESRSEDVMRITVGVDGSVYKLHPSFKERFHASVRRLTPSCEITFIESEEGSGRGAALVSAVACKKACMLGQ

[4] = target: T1, recombinant human pancreatic GLK; assay: biochemical

SMILES: Cc1nsc(NC(=O)c2cc(Oc3ccc(S(C)(=O)=O)cc3)cc(O[C@@H](C)CO)c2)n1 [Example 3a, 3-[(1S)-2-hydroxy-1-methylethoxy]-5-[4-(methylsulfonyl)phenoxy]-N-(3-methyl-1,2,4-thiadiazol-5-yl)benzamide]
oral exposure [1]: superior oral exposure | OGTT activity (percent reduction in glucose excursion, AUC vs vehicle) ([2]; 3 mg/kg, given orally): 17% | EC50 values, Example 3a compared with Example II107 in WO 03/015774 [3]: broadly similar | EC50 [4]: 50 nM

melting point: 142 °C
SMILES: C[C@@H](CO)Oc1cc(Oc2ccc(C(=O)N3CCC3)cc2F)cc(C(=O)Nc2ccn(C)n2)c1 [Example 4, 3-[4-(Azetidin-1-ylcarbonyl)-2-fluorophenoxy]-5-[(1S)-2-hydroxy-1-methylethoxy]-N-(1-methyl-1H-pyrazol-3-yl)benzamide]

melting point: 124 °C
SMILES: CCn1ccc(NC(=O)c2cc(Oc3ccc(C(=O)N4CCC4)cc3F)cc(O[C@@H](C)CO)c2)n1 [Example 9, 3-{[4-(Azetidin-1-ylcarbonyl)-2-fluorophenyl]oxy}-N-(1-ethyl-1H-pyrazol-3-yl)-5-{[(1S)-2-hydroxy-1-methylethyl]oxy}benzamide]

melting point: 173 to 175 °C
SMILES: Cc1nsc(NC(=O)c2cc(Oc3ccc(C(=O)N4CCC4)cc3F)cc(O[C@@H](C)CO)c2)n1 [Example 27, 3-[4-(Azetidin-1-ylcarbonyl)-2-fluorophenoxy]-5-[(1S)-2-hydroxy-1-methylethoxy]-N-(3-methyl-1,2,4-thiadiazol-5-yl)benzamide]

SMILES: Cc1cnc(NC(=O)c2cc(OCCc3ccsc3)cc(OC(C)C)c2)s1 [Example II107, reference compound]
OGTT activity ([2]; 10 mg/kg): not active

melting point: 126 to 132 °C
SMILES: C[C@@H](CO)Oc1cc(Oc2ccc(S(C)(=O)=O)cc2)cc(C(=O)Nc2ccn(C)n2)c1 [compound 3, 3-[(1S)-2-Hydroxy-1-methylethoxy]-N-(1-methyl-1H-pyrazol-3-yl)-5-[4-(methylsulfonyl)phenoxy]benzamide]
